{"source": "patent US4719235A", "about": "“Methods and compositions for treating viral infection” (Kern; Gerald N., priority 1985, dated 1988)", "key": {"[1]": {"assay": "Cytotoxicity in solutions free of serum, foreskin fibroblasts", "format": "cell-based, human", "set-up": "key to Foreskin (toxicity): 0: Cells had normal morphology; 4+: >90% of cells showed CTE", "settings": "human, foreskin fibroblasts, 0.2 mg/ml, 37° C., read-out: Foreskin (toxicity)", "method": "(§2) The cell lines used to evaluate cytotoxicity of docusate sodium were MA-104 derived from monkey kidneys, HeLa derived from human uterine carcinoma and primary fibroblasts from human foreskin. The cells were grown to confluency in 60×15 mm dishes. The cell monolayers were washed free of growth medium and 5 ml of serum-less growth medium containing docusate sodium at various concentrations was added. The curtures were incubated 24 hours at 37° C. and the cells then examined microscopically for cytotoxic effects (CTE). Controls were done in the same manner except that they were not exposed to docusate sodium."}, "[2]": {"tested_on": "primary fibroblasts from human foreskin", "assay": "Cytotoxicity in solutions free of serum, foreskin fibroblasts", "format": "cell-based", "set-up": "key to Foreskin (toxicity): 0: Cells had normal morphology; 4+: >90% of cells showed CTE", "settings": "24 hours, 37° C.", "method": "as §2"}, "[3]": {"tested_on": "MA-104", "assay": "Cytotoxicity in solutions containing serum, MA-104", "format": "cell-based, monkey", "set-up": "key: 0: Cells have normal morphology; 4+: >90% of cells showed CTE.; ±c: less than 10% of cells showed CTE", "settings": "2% fetal calf serum, 24 hours, 37° C."}, "[4]": {"tested_on": "HSV-2", "assay": "Pretreatment of MA-104 cells prior to exposure to HSV-2", "format": "cell-based, Herpes Simplex Type 2", "settings": "0.02 mg/ml", "description": "In this Example the effect that initially contacting (pretreating) MA-104 cells with docusate sodium has on subsequent exposure of such pretreated cells to HSV-2 virus was studied.\n(§1) MA-104 cells were washed free of growth medium and the cells were exposed to 0.02 mg/ml docusate sodium in serum-less growth medium for one hour. The docusate sodium solution was poured off, the cells washed twice, and then exposed to appropriately diluted HSV-2. A control solution prepared as above except for exposure to docusate sodium was also provided. After one hour at 37° C., the cells were overlayed with agar and incubated for 3 days at 37° C. to allow plaques to develop."}, "[5]": {"tested_on": "HSV-2", "assay": "Treatment of MA-104 cells infected with HSV-2", "format": "cell-based, Herpes Simplex Type 2", "settings": "0.02 mg/ml for one hour at 37° C., 6 and 24 hours after infection", "description": "MA-104 cells were washed free of growth medium and exposed to appropriately diluted HSV-2 for one hour at 37° C. At 6 and 24 hours after infection, the MA-104 cells were exposed to a solution containing 0.02 mg of docusate sodium per ml of solution for one hour at 37° C. The docusate sodium solution was poured off, agar overlay added, and the exposed cells incubated for 3 days at 37° C. to provide for plaque development."}, "[6]": {"tested_on": "Adenovirus", "assay": "Pretreatment of HeLa cells prior to exposure to Adenovirus", "format": "cell-based", "settings": "0.125 mg/ml in 10% fetal calf serum MEM", "description": "as §1, with “HeLa” for “MA-104”, “0.125” for “0.02”, “10% fetal calf serum MEM” for “serum-less growth medium”, “15 minutes.” for “one hour.”, “rinsed with phosphate buffered saline” for “washed twice,”, “Adenovirus.” for “HSV-2.”"}, "[7]": {"tested_on": "herpes virus", "assay": "Recovery of herpes virus from a contaminated surface (glass slides; plaques on MA-104 cells)", "format": "cell-based"}, "[8]": {"tested_on": "selected cell lines (MA-104, HeLa, Foreskin)"}, "[9]": {"settings": "cited from earlier work"}}, "data": [{"smiles": "CCCCC(CC)COC(=O)CC(C(=O)OCC(CC)CCCC)S(=O)(=O)O", "note": "(centres unmarked) [docusate sodium, 1,4-bis(2-ethylhexyl)sodium sulfosuccinate]", "values": [{"measurement": "cytotoxicity at 24 h", "setting": "[1]", "result": "> 90", "unit": "%"}, {"measurement": "Foreskin (toxicity)", "setting": "[2]; 0.01 mg/ml", "result": 0}, {"measurement": "Foreskin (toxicity)", "setting": "[2]; 0.05 mg/ml", "result": "4+ (>90% of cells showed CTE.)"}, {"measurement": "Foreskin (toxicity)", "setting": "[2]; 0.1 mg/ml", "result": "4+ (>90% of cells showed CTE.)"}, {"measurement": "MA-104 (Cytotoxic effect)", "setting": "[3]; 0.01 mg/ml", "result": 0}, {"measurement": "MA-104 (Cytotoxic effect)", "setting": "[3]; 0.02 mg/ml", "result": 0}, {"measurement": "MA-104 (Cytotoxic effect)", "setting": "[3]; 0.03 mg/ml", "result": 0}, {"measurement": "MA-104 (Cytotoxic effect)", "setting": "[3]; 0.04 mg/ml", "result": 0}, {"measurement": "plaque formation (conclusion)", "setting": "[4]; pretreatment", "result": "substantial drop in plaque formation"}, {"measurement": "plaque forming units/ml (pfu/ml)", "setting": "[4]; pretreatment one hour, serum-less (control 548)", "result": 26, "unit": "pfu/ml"}, {"measurement": "inhibition at 20 µg/mL", "setting": "[4]; Human alphaherpesvirus 2, MA104, 1 h, pretreatment one hour, serum-less, read-out: % decrease in pfu", "result": 95, "unit": "%"}, {"measurement": "inactivation of HSV-2 in cells infected prior to contact (conclusion)", "setting": "[5]", "result": "not effective in inactivating HSV-2 virus in cells infected with HSV-2"}, {"measurement": "plaque forming units/ml", "setting": "[6]; pretreatment 15 minutes (control 180,000)", "result": "175,000 pfu/ml"}, {"measurement": "inhibition at 125 µg/mL", "setting": "[6]; unidentified adenovirus, HeLa, 0.25 h, pretreatment 15 minutes, read-out: % decrease in pfu", "result": 3, "unit": "%"}, {"measurement": "plaque forming units", "setting": "[7]; 0.4% in phosphate buffered saline (control 41,250; control smear 13,500)", "result": 0, "unit": "plaque forming units"}, {"measurement": "recovery of viruses (conclusion)", "setting": "[7]; smears scrubbed off with 0.4% solution", "result": "no viruses were recovered"}, {"measurement": "effect of serum on cytotoxicity (conclusion)", "setting": "[8]", "result": "presence of serum reduced the cytotoxicity"}, {"measurement": "relative sensitivity of cell lines (conclusion)", "setting": "[8]", "result": "MA-104 cells were less sensitive to docusate sodium than were HeLa and foreskin fibroblast cells"}, {"measurement": "solubility in alcohol", "setting": "[9]; alcohol", "result": "freely soluble in alcohol"}, {"measurement": "solubility in water", "setting": "[9]; water", "result": "slowly soluble in water"}]}]}
